Test results from article PMC8621172, “Manipulating Estrogenic/Anti-Estrogenic Activity of Triphenylethylenes towards Development of Novel Anti-Neoplastic SERMs” (International Journal of Molecular Sciences, 2021).
Where “and” joins values, the source holds several entries; their conditions need not be identical. Identical values can stand only once.

Assays:
60 NCI tumor cell lines = test: NCI-60 single-dose growth inhibition screen (SRB); type: cell-based, human; conditions: for inhibition at 10 µM: Homo sapiens, mean over 60 NCI tumor cell lines; for anti-proliferative activity (in words): 10 µM, NCI-60 panel and MCF-7
Description: The anti-proliferative effects of the novel analogs were tested in vitro by the National Cancer Institute (NCI) on a panel of 60 human tumor cell lines at 10 µM. Compounds that elicited mean growth inhibition ≥50% were selected by the NCI for 5-dose testing.
Compounds were submitted to the Developmental Therapeutics Program (DTP) of the National Cancer Institute (NCI). The program uses a panel of 60 human tumor cell lines representing nine tissue types, including leukemia, non-small cell lung cancer (NSCLC), melanoma, colon cancer, ovarian cancer, CNS cancer, renal cancer, prostate cancer, and breast cancer, to screen for potential new anti-cancer agents. […] Primary screening of synthesized compounds was performed by testing a single high dose of 10 µM in the full NCI-60 panel. The percent growth of treated cells relative to the no-drug control and relative to the time zero number of cells was measured, and a mean graph was provided. The percentage inhibition was then calculated by subtracting the values obtained from 100.
All compounds were subjected to the NCI in vitro disease-oriented human cells screening panel assay. The human tumor cell lines of the cancer-screening panel are grown in RPMI 1640 medium containing 5% fetal bovine serum and 2 mM L-glutamine. For a typical screening experiment, cells are inoculated into 96-well microtiter plates in 100 μL at plating densities ranging from 5000 to 40,000 cells/well depending on the doubling time of individual cell lines. After cell inoculation, the microtiter plates are incubated at 37 °C, 5% CO2, 95% air, and 100% relative humidity for 24 h prior to the addition of experimental drugs. After 24 h, two plates of each cell line are fixed in situ with TCA to represent a measurement of the cell population for each cell line at the time of drug addition. Experimental drugs are solubilized in dimethyl sulfoxide at 400-fold the desired final maximum test concentration and stored frozen prior to use. At the time of drug addition, an aliquot of frozen concentrate is thawed and diluted to twice the desired final maximum test concentration with complete medium containing 50 μg/mL gentamicin. Additional four, 10-fold, or ½ log serial dilutions are made to provide a total of five drug concentrations plus control. Aliquots of 100 μL of these different drug dilutions are added to the appropriate microtiter wells already containing 100 μL of medium, resulting in the required final drug concentrations. Following drug addition, the plates are incubated for an additional 48 h at 37 °C, 5% CO2, 95% air, and 100% relative humidity. For adherent cells, the assay is terminated by the addition of cold TCA. Cells are fixed in situ by the gentle addition of 50 μL of cold 50% (w/v) TCA (final concentration, 10% TCA) and incubated for 60 min at 4 °C. The supernatant is discarded, and the plates are washed five times with tap water and air-dried. Sulforhodamine B (SRB) solution (100 μL) at 0.4% (w/v) in 1% acetic acid is added to each well, and plates are incubated for 10 min at room temperature. After staining, unbound dye is removed by washing five times with 1% acetic acid, and the plates are air-dried. Bound stain is subsequently solubilized with a 10 mM trizma base, and the absorbance is read on an automated plate reader at a wavelength of 515 nm. For suspension cells, the methodology is the same except that the assay is terminated by fixing settled cells at the bottom of the wells by gently adding 50 μL of 80% TCA (final concentration, 16% TCA). Compounds are screened at a dose of 10 µM, hits showing mean growth inhibition over 60 cell lines >50% are escalated for 5-dose screening assay.

human ERα = biological target: T1, human ERα (Homo sapiens, UniProt P03372); test: Yeast estrogen screen (YES) assay, agonistic activity (β-galactosidase reporter); type: cell-based; conditions: triplicates; for Estrogenic Activity (relative β-galactosidase activity): compounds at 1 µM, compared to DMSO (set as 1); for EC50: YES assay
T1 construct: host or cells: Saccharomyces cerevisiae
T1 sequence (P03372 1-595): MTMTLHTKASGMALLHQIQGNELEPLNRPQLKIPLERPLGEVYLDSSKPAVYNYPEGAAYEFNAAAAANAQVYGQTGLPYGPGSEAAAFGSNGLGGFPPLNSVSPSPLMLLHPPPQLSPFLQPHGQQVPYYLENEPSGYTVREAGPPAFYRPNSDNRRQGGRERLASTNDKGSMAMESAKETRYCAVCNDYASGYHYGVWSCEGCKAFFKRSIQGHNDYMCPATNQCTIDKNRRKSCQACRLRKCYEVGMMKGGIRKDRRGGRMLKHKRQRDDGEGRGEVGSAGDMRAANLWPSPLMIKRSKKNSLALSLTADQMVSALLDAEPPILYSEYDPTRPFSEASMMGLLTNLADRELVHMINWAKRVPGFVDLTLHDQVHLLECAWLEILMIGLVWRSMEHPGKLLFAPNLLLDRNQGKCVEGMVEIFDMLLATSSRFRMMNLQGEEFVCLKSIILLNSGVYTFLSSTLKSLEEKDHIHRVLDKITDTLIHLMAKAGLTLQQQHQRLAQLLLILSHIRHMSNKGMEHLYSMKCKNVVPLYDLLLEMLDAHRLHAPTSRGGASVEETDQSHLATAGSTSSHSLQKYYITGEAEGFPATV
Description: All synthesized compounds were tested for their relative activity in β-galactosidase in a yeast estrogen screen (YES) assay. Compounds were tested for their relative estrogenic/anti-estrogenic activities in comparison to positive and negative controls, respectively. YES assay is a gene reporter assay where the DNA sequence of human ERα is integrated into the yeast genome completed with an expression plasmid carrying estrogen response elements (ERE) in the promoter controlling the expression of the reporter gene lacZ (encoding the enzyme β-galactosidase). In the presence of estrogenic compounds, β-galactosidase is synthesized and secreted into the medium, where it converts the chromogenic substrate chlorophenol red-β-D-galactopyranoside (CRPG) from a yellow to a red product, whose absorbance is measured. […] Therefore, we decided to test the novel compounds in an organ-specific in vitro model using the human Ishikawa endometrial adenocarcinoma cell line.
All synthesized compounds were tested for their relative β-galactosidase activity in a yeast estrogen screen (YES) assay at a concentration of 1 µM using DMSO as control (set as 1).
The yeast estrogen receptor assay was supplied by Dr. J.P. Sumpter (Brunel University, Uxbridge, UK) and was used to determine the relative transactivation activity of the human ERα as formerly described. Briefly, Saccharomyces cerevisiae stably transfected with a human ERα and an estrogen-responsive element fused to the reporter gene lacZ encoding for β-galactosidase were treated with the test substances for about 48 h. The β-galactosidase enzymatic activity was measured in a colorimetric assay using a microplate photometer by hydrolysis of the substrate chlorophenol red β-D-galactopyranoside (Roche Diagnostics, Mannheim, Germany), which leads to the formation of chlorophenol red. This can be measured as an increased absorption at 540 nm. All compounds were diluted in DMSO. […] All compounds were tested in technical quadruplicates and biological triplicates. Statistical analysis was performed by analysis of variance (ANOVA) and Tukey’s post-hoc test with the significance level of p < 0.05.

| Estrogenic Activity (relative β-galactosidase activity) (human ERα) | EC50 (human ERα) | Compound | inhibition at 10 µM (60 NCI tumor cell lines) | anti-proliferative activity (in words) (60 NCI tumor cell lines) |
| --- | --- | --- | --- | --- |
| 2.40 ± 0.64 | – | COc1ccc(C(C)=C(c2ccc(Cl)cc2)c2ccc(OCCN(C)C)cc2)cc1F [Compound 20, E/Z-(2-{4-[1-(4-Chlorophenyl)-2-(3-fluoro-4-methoxyphenyl)-propenyl]-phenoxy}-ethyl)-dimethyl-amine] | 47% | – |
| 2.40 ± 0.77 | 0.735 ± 0.013 µM | CCN(CC)CCOc1ccc(C(=C(C)c2ccc(OC)c(F)c2)c2ccc(Cl)cc2)cc1 [Compound 21, E/Z-(2-{4-[1-(4-Chlorophenyl)-2-(3-fluoro-4-methoxyphenyl)-propenyl]-phenoxy}-ethyl)-diethyl-amine] | 31.2% | – |
| 1.15 ± 0.17 | – | COc1cc(C(C)=C(c2ccc(Cl)cc2)c2ccc(OCCN(C)C)cc2)ccc1F [Compound 27, E/Z-(2-{4-[1-(4-Chlorophenyl)-2-(4-fluoro-3-methoxyphenyl)-propenyl]-phenoxy}-ethyl)-dimethyl-amine] | 47.2% | – |
| 1.78 ± 0.64 | – | COc1cc(C(C)=C(c2ccc(Cl)cc2)c2ccc(OCCN3CCCCCC3)cc2)ccc1F [Compound 26, E/Z-1-(2-{4-[1-(4-Chlorophenyl)-2-(4-fluoro-3-methoxyphenyl)-propenyl]-phenoxy}-ethyl)-azepane] | 28.3% | – |
| 1.31 ± 0.30 | – | COc1cc(C(C)=C(c2ccc(Cl)cc2)c2ccc(OCCN3CCOCC3)cc2)ccc1F [Compound 25, E/Z-4-(2-{4-[1-(4-Chlorophenyl)-2-(4-fluoro-3-methoxyphenyl)-propenyl]-phenoxy}-ethyl)-morpholine] | 12.8% | lacked anti-proliferative activity |
| 1.87 ± 0.74 | – | COc1cc(C(C)=C(c2ccc(Cl)cc2)c2ccc(OCCCN(C)C)cc2)ccc1F [Compound 22, E/Z-(3-{4-[1-(4-Chlorophenyl)-2-(4-fluoro-3-methoxyphenyl)-propenyl]-phenoxy}-propyl)-dimethyl-amine] | 18.6% | – |
| 1.19 ± 0.20 | – | COc1cc(C(C)=C(c2ccc(Cl)cc2)c2ccc(OCCN3CCCCC3)cc2)ccc1F [Compound 24, E/Z-1-(2-{4-[1-(4-Chlorophenyl)-2-(4-fluoro-3-methoxyphenyl)-propenyl]-phenoxy}-ethyl)-piperidine] | 29.2% | – |

Further lines, the molecule ahead of its results:

| Compound | Estrogenic Activity (relative β-galactosidase activity) (human ERα) | EC50 (human ERα) | inhibition at 10 µM (60 NCI tumor cell lines) | anti-proliferative activity (in words) (60 NCI tumor cell lines) |
| --- | --- | --- | --- | --- |
| COc1ccc(C(C)=C(c2ccc(Cl)cc2)c2ccc(OCCN3CCCCC3)cc2)cc1 [Compound 12, E/Z-1-(2-{4-[1-(4-Chloro-phenyl)-2-(4-methoxy-phenyl)-propenyl]-phenoxy}-ethyl)-piperidine] | 3.65 ± 0.70 | – | 55.2% | – |
| CC(=C(c1ccc(Cl)cc1)c1ccc(OCCN2CCCCCC2)cc1)c1ccccc1 [Compound 9, E/Z-1-(2-{4-[1-(4-Chloro-phenyl)-2-phenyl-propenyl]-phenoxy}-ethyl)-azepane] | 6.74 and 6.74 ± 1.67 | – | 25.4% | – |
| CC(=C(c1ccc(Cl)cc1)c1ccc(OCCCN(C)C)cc1)c1ccccc1 [Compound 5, E/Z-(3-{4-[1-(4-Chloro-phenyl)-2-phenyl-propenyl]-phenoxy}-propyl)-dimethyl-amine] | 2.25 ± 0.92 | – | 15.4% | – |
| COc1ccc(C(C)=C(c2ccc(Cl)cc2)c2ccc(OCCN3CCCC3)cc2)cc1F [Compound 16, E/Z-1-(2-{4-[1-(4-Chlorophenyl)-2-(3-fluoro-4-methoxyphenyl)-propenyl]-phenoxy}-ethyl)-pyrrolidine] | 2.19 ± 0.71 | – | 77.2% | – |
| COc1ccc(C(C)=C(c2ccc(Cl)cc2)c2ccc(OCCCN(C)C)cc2)cc1F [Compound 15, E/Z-(3-{4-[1-(4-Chlorophenyl)-2-(3-fluoro-4-methoxyphenyl)-propenyl]-phenoxy}-propyl)-dimethyl-amine] | 7.77 and 7.77 ± 1.9 | 0.44 ± 0.01 µM | 47.9% | – |
| CC(=C(c1ccc(Cl)cc1)c1ccc(OCCN2CCCCC2)cc1)c1ccccc1 [Compound 7, E/Z-1-(2-{4-[1-(4-Chloro-phenyl)-2-phenyl-propenyl]-phenoxy}-ethyl)-piperidine] | 2.87 ± 0.90 | – | 29% | – |
| COc1ccc(C(C)=C(c2ccc(Cl)cc2)c2ccc(OCCN3CCCC3)cc2)cc1 [Compound 11, E/Z-1-(2-{4-[1-(4-Chloro-phenyl)-2-(4-methoxy-phenyl)-propenyl]-phenoxy}-ethyl)-pyrrolidine] | 1.98 ± 0.12 | – | 67.8% | – |
| CC(=C(c1ccc(Cl)cc1)c1ccc(OCCN2CCCC2)cc1)c1ccccc1 [Compound 6, E/Z-1-(2-{4-[1-(4-Chloro-phenyl)-2-phenyl-propenyl]-phenoxy}-ethyl)-pyrrolidine] | 2.88 ± 0.89 | – | 37.8% | – |
| CC(=C(c1ccc(Cl)cc1)c1ccc(OCCN2CCOCC2)cc1)c1ccccc1 [Compound 8, E/Z-4-(2-{4-[1-(4-Chloro-phenyl)-2-phenyl-propenyl]-phenoxy}-ethyl)-morpholine] | 1.85 ± 0.11 | – | 9.4% | lacked anti-proliferative activity |
| COc1ccc(C(C)=C(c2ccc(O)cc2)c2ccc(Cl)cc2)cc1F [Compound 3, E/Z-4-[1-(4-Chlorophenyl)-2-(3-fluoro-4-methoxyphenyl)propenyl]-phenol] | 12.83 ± 2.72 | 0.04 µM and 0.0401 µM | 2.34% | lacked anti-proliferative activity |
